These results are taken from patent US20040171688A1, “Carboxylic acids and derivatives thereof and pharmaceutical compositions containing them” (priority 1997, published 2004).

Assay [1] has as its target T1, HNF-4α (Rattus norvegicus, UniProt P22449).
T1 construct: GST-HNF-4α(LBD) fusion protein consisting of amino acids 96-455 of wild type HNF-4α fused to GST; fused on or other part: Glutathione-S-transferase (GST) at the N-terminus of the LBD construct; 6-histidine tag on the full-length construct
T1 sequence (P22449 105-464 isoform P22449-2 limits assumed): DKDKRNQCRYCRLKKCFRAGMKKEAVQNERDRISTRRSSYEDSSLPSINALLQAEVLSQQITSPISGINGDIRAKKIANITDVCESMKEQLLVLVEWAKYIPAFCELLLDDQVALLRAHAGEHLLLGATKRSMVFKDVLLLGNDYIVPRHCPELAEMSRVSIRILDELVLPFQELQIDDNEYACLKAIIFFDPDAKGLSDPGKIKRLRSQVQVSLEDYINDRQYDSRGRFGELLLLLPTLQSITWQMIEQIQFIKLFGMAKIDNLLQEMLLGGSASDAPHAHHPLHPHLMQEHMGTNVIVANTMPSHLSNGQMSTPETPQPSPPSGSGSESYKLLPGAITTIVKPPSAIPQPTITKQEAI
Briefly: Ligand binding assay with [3H]palmitoyl(16:0)-CoA on recombinant GST-HNF-4α(LBD) or His-HNF-4α. The procedure: a. […] The respective recombinant proteins are incubated to equilibrium with [^3H]palmitoyl(16:0)-CoA (0.05 μCi) and with increasing nonlabeled palmitoyl(16:0)-CoA as indicated.
b. […] The respective recombinant proteins are incubated with 8 nM of [^3H]palmitoyl(16:0)-CoA (60 Ci/mmol) and with increasing nonlabeled myristoyl(14:0)-CoA as indicated. Percent bound refers to radiolabeled [^3H]palmitoyl(16:0)-CoA in the bound fraction. […] Percent bound refers to radiolabeled [^3H]palmitoyl(16:0)-CoA in the bound fraction.
Rat HNF-4α1 cDNA(pLEN4S)^1 was subcloned into the glutathione-S-transferase (GST) encoding pGEX-2T plasmid (Pharmacia) and the resultant plasmid was cleaved with smaI and AccI and religated to yield the GST-HNF-4α(LBD) fusion plasmid. […] The full length HNF-4α1 cDNA cloned into 6His-pET11d vector was expressed in E.coli BL21 (DE3)plysS.
Recombinant GST-HNF-4α(LBD) (100 pmol) or His-HNF-4α (100 pmol) were incubated for 60 min at 22° C. with [^3H]palmitoyl(16:0)-CoA (American RadiolabeledChemicals) in 100 μl of 10 mM phosphate buffer (pH 7.4). Competitor ligands or solvent carrier were added as indicated. Free and HNF-4α bound ^3[H]palmitoyl(16:0)-CoA were separated by […] and bound ligand was quantified by liquid scintillation counting. Nonspecific binding of [^3H]palmitoyl(16:0)-CoA was determined by its binding to the GST moiety or to carbonic anhydrase as nonrelevant protein.
Binding was exemplified with either the ligand binding domain of HNF-4α fused to glutathione-s-transferase (GST-HNF-4α(LBD)) or the full length HNF-4α protein tagged by 6 histidines (His-HNF-4α).

Assay [2] has as its target T2, HNF-4α (Rattus norvegicus, UniProt P22449).
T2 sequence (P22449 1-464 isoform P22449-2): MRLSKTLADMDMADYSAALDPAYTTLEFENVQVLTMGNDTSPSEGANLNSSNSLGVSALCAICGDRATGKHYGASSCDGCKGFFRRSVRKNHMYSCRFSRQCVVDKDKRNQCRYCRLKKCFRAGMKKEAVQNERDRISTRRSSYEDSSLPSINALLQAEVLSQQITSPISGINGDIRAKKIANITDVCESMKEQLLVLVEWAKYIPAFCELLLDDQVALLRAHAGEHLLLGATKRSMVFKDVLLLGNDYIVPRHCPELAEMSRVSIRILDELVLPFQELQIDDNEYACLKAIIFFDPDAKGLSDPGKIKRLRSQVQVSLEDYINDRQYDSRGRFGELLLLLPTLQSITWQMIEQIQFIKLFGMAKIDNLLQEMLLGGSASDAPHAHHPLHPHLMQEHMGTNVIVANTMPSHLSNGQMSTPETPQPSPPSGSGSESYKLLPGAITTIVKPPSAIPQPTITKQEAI
Briefly: Transfection assay: COS-7 cells cotransfected with (C3P)3-TK-CAT reporter and pSG5-HNF-4α. Format: cell-based. Details: expressed in transfected cells; host or cells: COS-7. The settings on record: for EC50: proligands added to culture medium of COS-7 cells (FIG. 4b), read-out: EC50 of HNF-4α suppression (CAT activity); for inhibition of HNF-4α transcriptional activity, effectiveness in words: transfection assays, added to culture medium; for effect on HNF-4α dependent transcription (CAT activity): free fatty acids added to culture medium of COS-7 cells (FIG. 4a). The procedure: a. […] Fold induction of CAT activity by transfected HNF-4I is determined by evaluating CAT activity in the presence of pSG5-HNF-4I as compared with pSG5 plasmid and as function of respective fatty acids added to the culture medium as indicated. The figure summarizes 3-4 independent experiments for each fatty acid. Mean ± S.E.
b. […] Fold induction refers to CAT activity in cells incubated with 3,3,12,12-tetramethyl-tetradecanedioic acid (∘), 3,3,14,14-tetramethyl-hexadecanedioic acid (□) and 3,3,16,16-tetramethyl-octadecanedioic acid (Δ) proligands normalized to the activity in cells incubated in the absence of added proligands.
COS-7 cells cotransfected for 6 h with the (C3P)3-TK-CAT reporter plasmid (5 μg) and with either the pSG5-HNF-4α expression plasmid ([…]) or the pSG5 plasmid (0.025 μg) added by calcium phosphate precipitation were cultured in serum free medium with fatty acids (complexed with albumin in a molar ratio of 6:1) added as indicated. β-Galactosidase expression vector pRSGAL (1 μg) added to each precipitate served as an internal control for transfection. The (C3P)3-TK-CAT construct was prepared by inserting a synthetic oligonucleotide encompassing the (−87/−66) Apo CIII promoter sequence (5′-[…]-3′) flanked by HindIII restriction site into pBLCAT2^47 upstream of the −105 bp thymidine kinase promoter. The construct containing three copies of the synthetic oligonucleotide in the direct orientation was selected and confirmed by sequencing.
The intracellular effect of HNF-4α ligands on HNF-4α mediated transcription was evaluated in COS-7 cells cotransfected with an expression vector for HNF-4α and with a CAT reporter plasmid driven by a thymidine kinase promoter and enhanced by one to three C3P copies of the apo CIII gene promoter. Transfected cells were incubated in the presence of free fatty acids and xenobiotic amphipathic carboxylates representing agonistic or antagonistic HNF-4α proligands.

Setting [3] is: competition with 8 nM [3H]palmitoyl(16:0)-CoA, GST-HNF-4α(LBD) or His-HNF-4α, read-out: EC50 (50% specific competition).

A word on the EC50: it is the concentration giving half of the maximal effect. With `CC(C)(Oc1ccc(CCNC(=O)c2ccc(Cl)cc2)cc1)C(=O)O` [Bezafibrate, reference compound], the EC50 on HNF-4α [1] was 90 µM; at HNF-4α [2], 260 µM.
`CC(C)(CCCCCCCCCCCCC(C)(C)CC(=O)O)CC(=O)O` [3,3,16,16-tetramethyl-octadecanedioic acid]: the concentration for a half-maximal effect (EC50) on HNF-4α [1] (setting [3]) came out at 8 µM. For the same molecule, on HNF-4α [2], the EC50 is 150 µM and the “inhibition of HNF-4α transcriptional activity, effectiveness in words” value (shortened to “inhibition”) is reported as “Highly effective”.
As for `CC(C)(CCCCCCCCCCC(C)(C)C(=O)O)C(=O)O` [2,2,13,13-tetramethyl-tetradecane dioic acid], the EC50 on HNF-4α [2] worked out at 230 µM.
As to `CC(C)(Oc1ccc(C2CCCc3ccccc32)cc1)C(=O)O` (centres unmarked) [Nafenopin, reference compound], the figures for the 50% effective concentration (EC50) at HNF-4α [1] (setting [3]) and on HNF-4α [2] were 90 µM and 160 µM, respectively.
Consider `CC(C)Cc1ccc(C(C)C(=O)O)cc1` (centres unmarked) [Ibuprofen, reference compound], for which, at HNF-4α [1] (setting [3]), the EC50 was 40 µM.
Take `CC(C)(CCCCCCCCCCCCC(C)(C)C(=O)O)C(=O)O` [2,2,15,15-tetramethyl-hexadecane dioic acid]: at HNF-4α [2], the EC50 was determined as 150 µM and the “inhibition” value is recorded as “Highly effective”.
Take `CC/C=C\C/C=C\C/C=C\CCCCCCCC(=O)O` [α-linolenic(18:3), α-linolenic(18:3) acid]: the “effect on HNF-4α dependent transcription (CAT activity)” value (from here on “effect … (CAT activity)”) on HNF-4α [2] is “suppressive”.
For `CC(C)(CCCCCCCCCCC(C)(C)CCC(=O)O)CCC(=O)O` [4,4,15,15-tetramethyl-octadecane dioic acid], at HNF-4α [2], the EC50 was determined as 150 µM and the “inhibition” value was “Highly effective”.
Taken in the same sequence, the figures for `CC(C)(CCCCCCCCC(C)(C)CCC(=O)O)CCC(=O)O` [4,4,13,13-tetramethyl-hexadecane dioic acid] were 150 µM and “Highly effective”.
Regarding `CCCCCCCC/C=C\CCCCCCCC(=O)SCCNC(=O)CCNC(=O)[C@H](O)C(C)(C)COP(=O)(O)OP(=O)(O)OC[C@H]1O[C@@H](n2cnc3c(N)ncnc32)[C@H](O)[C@@H]1OP(=O)(O)O` [Oleoyl(18:1)-CoA], on HNF-4α [1] (setting [3]), the half-maximal effective concentration (EC50) came to 1.4 µM.
For the molecule `CC(C)(CCCCCCCCCCCCCCC(C)(C)C(=O)O)C(=O)O` [2,2,17,17-tetramethyl-octadecane dioic acid], on HNF-4α [2], the EC50 amounted to 150 µM and the “inhibition” value is on record as “Highly effective”.
As for `CC/C=C\C/C=C\C/C=C\C/C=C\C/C=C\CCCC(=O)O` [eicosapentaenoic(20:5) acids, eicosapentaenoic(20:5) acid], the “effect … (CAT activity)” value on HNF-4α [2] is on record as “suppressive”.
For the molecule `CCCCC/C=C\C/C=C\CCCCCCCC(=O)SCCNC(=O)CCNC(=O)[C@H](O)C(C)(C)COP(=O)(O)OP(=O)(O)OC[C@H]1O[C@@H](n2cnc3c(N)ncnc32)[C@H](O)[C@@H]1OP(=O)(O)O` [Linoleoyl(18:2)-CoA], the 50% effective concentration (EC50) at HNF-4α [1] (setting [3]) amounted to 1.9 µM.
Regarding `CC(C)(CCCCCCCCCCCCCCCCO)C(=O)O` [18-hydroxy-2,2-dimethyl-octadecanoic acid], at HNF-4α [2], the “inhibition” value was “effective”.
In the case of `CCCCCCCCCCCC(=O)SCCNC(=O)CCNC(=O)[C@H](O)C(C)(C)COP(=O)(O)OP(=O)(O)OC[C@H]1O[C@@H](n2cnc3c(N)ncnc32)[C@H](O)[C@@H]1OP(=O)(O)O` [Dodecanoyl(12:0)-CoA, reference compound], the half-maximal effective concentration (EC50) on HNF-4α [1] (setting [3]) was 2.3 µM.
For the molecule `CC(C)(CCCCCCCCCCCCCO)CC(=O)O` [16-hydroxy-3,3-dimethyl-hexadecanoic acid], the “inhibition” value against HNF-4α [2] is recorded as “effective”.
On the same count and under the same terms, the same measure for `CC(C)(CCCCCCCCCCCCO)CCC(=O)O` [16-hydroxy-4,4-dimethyl-hexadecanoic acid]: “effective”; for `O=C(O)CCCCCCCCCCCCCCCO` [16-hydroxy-hexadecanoic acid]: “effective”; for `CC(C)(CCCCCCCCCCCCCCO)C(=O)O` [16-hydroxy-2,2-dimethyl-hexadecanoic acid]: “effective”.
As for `COc1ccc2c(c1)c(CC(=O)O)c(C)n2C(=O)c1ccc(Cl)cc1` [Indomethacine, reference compound], the concentration for a half-maximal effect (EC50) at HNF-4α [2] came to 130 µM.
For `CC(C)(CCCCCCCCC(C)(C)CC(=O)O)CC(=O)O` [3,3,12,12-tetramethyl-tetradecanedioic acid], the EC50 on HNF-4α [1] (setting [3]) is 40 µM; at HNF-4α [2], more than 300 µM.
On to `CC(C)(COP(=O)(O)OP(=O)(O)OC[C@H]1O[C@@H](n2cnc3c(N)ncnc32)[C@H](O)[C@@H]1OP(=O)(O)O)[C@@H](O)C(=O)NCCC(=O)NCCS` [free CoA], for which the “binding to HNF-4α (in words)” value on HNF-4α [1] (GST-HNF-4α(LBD) or His-HNF-4α) is “inactive”.
As for `CCCCCCCCCCCCCCCC(=O)O` [palmitic(16:0) acid], the “effect … (CAT activity)” value at HNF-4α [2] was “dose dependent activation”.
`CC(C)(CCCCCCCCCCC(C)(C)CC(=O)O)CC(=O)O` [3,3,14,14-tetramethyl-hexadecanedioic acid]: the EC50 at HNF-4α [1] (setting [3]) amounted to 8 µM; on HNF-4α [2], 155 µM. In addition, the “inhibition” value against HNF-4α [2] is listed as “Highly effective”.
As for `CC(C)(CCCCCCCCCCCCCCCO)CC(=O)O` [18-hydroxy-3,3-dimethyl-octa-decanoic acid], the “inhibition” value against HNF-4α [2] was “effective”.
Still for that read-out and setting: the same measure for `CC(C)(CCCCCCCCCCCCCCO)CCC(=O)O` [18-hydroxy-4,4-dimethyl-octadecanoic acid]: “effective”; for `O=C(O)CCCCCCCCCCCCCCCCCO` [18-hydroxy-octadecanoic acid]: “effective”.
